Here are results for eleven compounds from ChEMBL document CHEMBL1201862, “PubChem BioAssay data set” (2004).

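Grown in 96-well plates, cells were treated for 48 hours with each compound at five concentrations. Insufficient inhibition: endpoint recorded as highest concentration tested. At the GI50, growth is halved.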 The source made the active and inactive calls. Cut-off read from the data, not from the text of the source: active = GI50 up to about 1.1 µM and inactive = higher.

Common to all, as to assay: inhibition of tumour cell growth, NCI panel, 48 h
The subject of assay [1] is 786-0.
Assay [2] relates to A498.
Assay [3] relates to A549.
Assay [4] relates to COLO 205.
In assay [5] the test system is HCC 2998.
Assay [6] deals with HCT-15.
Assay [7] deals with HT-29.
Assay [8] has as its system IGROV-1.
The test system of assay [9] is Malme-3M.
Assay [10] concerns NCI-H226.
The test system of assay [11] is RPMI-8226.
Assay [12] deals with SF-268.
The subject of assay [13] is SF-295.
Assay [14] has as its system SF-539.
In assay [15] the test system is SK-MEL-28.
Assay [16] has as its system SK-MEL-2.
Assay [17] concerns SNB-19.
The subject of assay [18] is UACC-257.
Assay [19] deals with MOLT-4.

Consider `O=c1c2cc(Br)ccc2[nH]c(=S)n1-c1ccccc1`, for which the GI50 is > 100 µM (inactive) in [1]; > 100 µM (inactive) in [2]; > 100 µM (inactive) in [3]; > 100 µM (inactive) in [4]; > 100 µM (inactive) in assay [5]; greater than 100 µM in assay [6]. The GI50 in [7], in assay [8], in assay [9], in assay [10], in assay [11] and in assay [12] was > 100 µM (inactive) in each case. The GI50 in assay [13], in assay [14], in assay [15], in assay [16], in assay [17] and in assay [18] was > 100 µM (inactive) in each case.
As for `CN(CC(=O)O)S(=O)(=O)c1ccc2ccccc2c1`, the GI50 is > 100 µM (inactive) in assay [1]; > 100 µM (inactive) in [2]; > 100 µM (inactive) in assay [3]; > 100 µM (inactive) in [4]; > 100 µM (inactive) in [5]; greater than 100 µM in [6]. The GI50 in assay [7], in assay [8], in [19], in assay [9], in [11] and in [12] was > 100 µM (inactive) each time. The GI50 in assay [13], in assay [14], in assay [15], in assay [16], in assay [17] and in assay [18] was > 100 µM (inactive) throughout.
Take `CC(Oc1ccc2c(-c3ccc(Cl)cc3)cc(=O)oc2c1)C(=O)O` (stereo unspecified): the GI50 in assay [1], in [2], in [3], in assay [4], in [5] and in assay [7] was > 100 µM (inactive) each time. The GI50 in assay [8], in assay [19], in assay [9], in assay [10], in assay [12] and in assay [13] was > 100 µM (inactive) each time. Further, the GI50 in assay [14], in [15], in assay [17] and in assay [18] was > 100 µM (inactive) throughout.
Take `O=c1n(-c2ccccc2)c(=O)n2n1C1C=CC2C2C(C1)C2(Cl)Cl` (stereo unspecified): the GI50 in [1] was > 100 µM (inactive); in [2], > 100 µM (inactive); in assay [3] it was > 100 µM (inactive); in assay [4], > 100 µM (inactive); in [5], > 100 µM (inactive); in assay [6], greater than 100 µM. Also, the GI50 in assay [8], in assay [19], in assay [9], in assay [10], in assay [12] and in [13] was > 100 µM (inactive) in each case. For the same compound, the GI50 in [14], in assay [16], in assay [17] and in assay [18] was > 100 µM (inactive) throughout.
For `Fc1ccc2c(c1)cc1ccc3cccc4ccc2c1c34`, the GI50 in [1], in assay [2], in assay [3], in assay [4], in assay [5] and in assay [7] was > 100 µM (inactive) each time. Besides, the GI50 in assay [8], in assay [19], in assay [9], in assay [10], in [12] and in assay [13] was > 100 µM (inactive) throughout. Also, the GI50 in [14], in assay [15], in assay [16], in [17] and in [18] was > 100 µM (inactive) in each case.
For `CN1C(=O)CC2(C)c3cc(O)cc(Br)c3N(C)C12` (stereo unspecified), the GI50 in assay [1] is > 100 µM (inactive); in assay [2], > 100 µM (inactive); in assay [3], > 100 µM (inactive); in [4] it was > 100 µM (inactive); in [5], > 100 µM (inactive); in assay [6] it was greater than 100 µM. Besides, the GI50 in assay [7], in assay [8], in [19], in assay [9], in assay [10] and in [12] was > 100 µM (inactive) in each case. Also, the GI50 in assay [13], in assay [14], in assay [15], in assay [16], in [17] and in assay [18] was > 100 µM (inactive) each time.
Regarding `C/C(=C\C(C[C@](C)(O)C(O)CCC#C[Si](C)(C)C)S(=O)(=O)c1ccccc1)CC/C=C/CO[Si](C)(C)C(C)(C)C` (stereo partly specified), the GI50 in assay [1] was 17 µM (inactive); in assay [2], 17.5 µM (inactive); in assay [3], 15 µM (inactive); in assay [5] it was 21 µM (inactive); in assay [6], 17.4 µM; in [7], 3.57 µM (inactive). Besides, the GI50 in assay [8] was 20.8 µM (inactive); in assay [19], 6.95 µM (inactive); in assay [9] it was 20.7 µM (inactive); in assay [10], 22.1 µM (inactive); in [11], 10.1 µM (inactive); in [13] it was 16.5 µM (inactive). The GI50 was 20 µM (inactive) in [14], 18 µM (inactive) in [16], 19.8 µM (inactive) in [17] and 17.3 µM (inactive) in assay [18].
As to `CNS(=O)(=O)NN(C)S(=O)(=O)c1ccccc1`, the GI50 in [1] was > 100 µM (inactive); in assay [2], > 100 µM (inactive); in assay [3] it was > 100 µM (inactive); in assay [4], > 100 µM (inactive); in assay [5], > 100 µM (inactive); in assay [6], greater than 100 µM. The GI50 in assay [7], in [8], in assay [19], in assay [9], in assay [10] and in [11] was > 100 µM (inactive) in each case. Also, the GI50 in assay [12], in assay [13], in [14], in assay [16], in assay [17] and in [18] was > 100 µM (inactive) each time.
On to `CC1=C(C(=O)Nc2ccccc2)C(c2ccccc2)C(C(=O)Nc2ccccc2)=C(C)N1`, for which the GI50 in assay [1] was 76.4 µM (inactive); in assay [2], 86.1 µM (inactive); in assay [3] it was 35.2 µM (inactive); in [4] it was 38.4 µM (inactive); in [5], 31 µM (inactive); in [6], 23.4 µM. Also, the GI50 in [7] was 32.2 µM (inactive); in assay [8] it was 75.9 µM (inactive); in [19], 18.7 µM (inactive); in assay [9] it was > 100 µM (inactive); in assay [10] it was > 100 µM (inactive); in [12], 42.5 µM (inactive). Besides, the GI50 was 38.5 µM (inactive) in assay [13]; > 100 µM (inactive) in assay [14]; 55.8 µM (inactive) in assay [15]; 32.1 µM (inactive) in assay [16]; 94.4 µM (inactive) in [17]; 36.1 µM (inactive) in assay [18].
As to `C=C1C(=O)C23C(CC(OC(C)=O)C1[C@@H]2OC(C)=O)C1(C)C(OC(C)=O)CCC(C)(C)C1C[C@@H]3OC(C)=O` (stereo partly specified), the GI50 was 1.43 µM (inactive) in assay [1]; 1.95 µM (inactive) in assay [2]; 1.68 µM (inactive) in assay [3]; 1.84 µM (inactive) in assay [5]; 1.23 µM in assay [6]; 1.01 µM (active) in assay [7]. The GI50 is 1.45 µM (inactive) in assay [8]; 0.365 µM (active) in [19]; 1.55 µM (inactive) in assay [9]; 1.69 µM (inactive) in assay [10]; 1.48 µM (inactive) in [11]; 1.56 µM (inactive) in assay [12]. Also, the GI50 in [13] is 1.46 µM (inactive); in [14] it was 1.76 µM (inactive); in assay [15], 1.87 µM (inactive); in assay [16], 1.93 µM (inactive); in assay [17] it was 1.86 µM (inactive); in assay [18] it was 1.74 µM (inactive).
Turning to `O=c1/c(=C/c2ccccc2[N+](=O)[O-])sc2nnc(-c3cccnc3)n12`, the GI50 was > 100 µM (inactive) in [1]; > 100 µM (inactive) in assay [2]; > 100 µM (inactive) in assay [3]; > 100 µM (inactive) in [5]; greater than 100 µM in assay [6]; > 100 µM (inactive) in [7]. For the same compound, the GI50 in assay [8] is > 100 µM (inactive); in assay [19] it was 63.5 µM (inactive); in [9] it was > 100 µM (inactive); in assay [10], > 100 µM (inactive); in [11], > 100 µM (inactive); in [12] it was > 100 µM (inactive). The GI50 in assay [13] was > 100 µM (inactive); in assay [14] it was > 100 µM (inactive); in [15], > 100 µM (inactive); in [16], > 100 µM (inactive); in assay [17], 17.7 µM (inactive); in assay [18] it was > 100 µM (inactive).
